In patent publication US20240218022A1, “ANTI-VISTA MACROCYCLIC PEPTIDES AND COMPOSITIONS” (BRISTOL-MYERS SQUIBB COMPANY, priority 2022, published 2024) one finds IC50 data, which are given here for six molecules.

The assay deals with T1, mouse VISTA (mVISTA) (Mus musculus, UniProt Q9D659).
T1 construct: expressed in transfected cells; host or cells: Human embryonic kidney 293T cells
T1 sequence (Q9D659 33-308): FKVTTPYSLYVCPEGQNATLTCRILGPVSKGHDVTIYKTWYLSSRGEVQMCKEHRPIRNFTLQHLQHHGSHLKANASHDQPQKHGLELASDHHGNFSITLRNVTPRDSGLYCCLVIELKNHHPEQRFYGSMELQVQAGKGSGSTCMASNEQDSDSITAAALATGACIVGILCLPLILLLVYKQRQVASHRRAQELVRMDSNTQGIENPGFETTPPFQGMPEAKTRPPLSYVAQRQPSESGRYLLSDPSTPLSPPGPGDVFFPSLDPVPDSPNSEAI
The assay is described as follows: Cell-Based Binding High-Content Assay For mVISTA (HC CBA mVISTA). The settings on record: read-out: HC CBA mVISTA IC50. Put shortly:
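Read-out: Alexa 647–streptavidin signal imaged on fixed, Hoechst-stained mVISTA-293T cells, with IC50 taken from a four-parameter logistic curve. Compounds competed with 2 nM biotinylated peptide for 30 min at room temperature, tested under both no-wash and wash (1 h compound, media exchange, 1 h) formats.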

In general, IC50 refers to the concentration at which inhibition is half-maximal.

Like-named read-outs stand apart in the source and are kept apart here. Starred links: 1 amine or outer side, 2 acyl side, 3 side chain; linkers in the order of their positions; H or OH if unused. Positions of bridges follow the written chain, without caps; N, C: chain ends. Non-standard residues stand in square brackets, D forms with d. Residues, ends and D or L forms follow the SMILES beside them. ξ: configuration not given here. Phe(3-Me) = Cc1cccc(C[C@H](N)C(=O)O)c1; 2Nal = N[C@@H](Cc1ccc2ccccc2c1)C(=O)O; βAsp = O=C(O)[C@H](CC(=O)[*:2])N[*:1]; Pro(4ξ-F) = O=C(O)[C@@H]1CC(F)CN1; Ahp(2) = CCCCC[C@H](N)C(=O)O; NMeNle = CCCC[C@H](NC)C(=O)O; Tle = CC(C)(C)[C@H](N)C(=O)O; NHexGly = CCCCCCNCC(=O)O; Nle = CCCC[C@H](N)C(=O)O; Aun = NCCCCCCCCCCC(=O)O; Dap = NC[C@H](N)C(=O)O; AEEA = NCCOCCOCC(=O)O

In the case of `CCCCCCN1CC(=O)N[C@@H](Cc2ccc(O)cc2)C(=O)N[C@@H](CCCC)C(=O)N[C@@H](CC(=O)O)C(=O)N[C@@H](CCCNC(=N)N)C(=O)N(C)[C@@H](CCCC)C(=O)N[C@@H](CCCCC)C(=O)N2CCC[C@H]2C(=O)N[C@@H](C(C)(C)C)C(=O)N[C@@H](CC(=O)O)C(=O)N[C@H](C(=O)N[C@@H](CC(=O)O)C(N)=O)CSCC(=O)N[C@@H](Cc2ccccc2)C(=O)N[C@@H](Cc2c[nH]c3ccccc23)C(=O)N[C@@H](CC(=O)O)C1=O` [Example 1377] ({CH2CO}-FWD[NHexGly]Y[Nle]DR[NMeNle][Ahp(2)]P[Tle]DCD-NH2; thioether N-14), the 50% inhibitory concentration (IC50) was determined as 22.2 nM.
On to `CCCCCCN1CC(=O)N[C@@H](Cc2ccc(O)cc2)C(=O)N[C@@H](CCCC)C(=O)N[C@@H](CC(N)=O)C(=O)N[C@@H](CCCNC(=N)N)C(=O)N(C)[C@@H](CCCC)C(=O)N[C@@H](CCCCC)C(=O)N2CCC[C@H]2C(=O)N[C@@H](C(C)(C)C)C(=O)N[C@@H](CC(=O)O)C(=O)N[C@H](C(=O)N[C@@H](CN)C(=O)NCCOCCOCC(=O)NCCCCCCCCCCC(=O)O)CSCC(=O)N[C@@H](Cc2ccccc2)C(=O)N[C@@H](Cc2c[nH]c3ccccc23)C(=O)N[C@@H](CC(=O)O)C1=O` [Example 2339] ({CH2CO}-FWD[NHexGly]Y[Nle]NR[NMeNle][Ahp(2)]P[Tle]DC[Dap][AEEA][Aun]-OH; thioether N-14), for which, for the setting “cell-based binding high-content assay”, the IC50 stood at 26.1 nM.
Regarding `CCCCCCN1CC(=O)N[C@@H](Cc2ccc(O)cc2)C(=O)N[C@@H](CCCC)C(=O)N[C@@H](CC(N)=O)C(=O)N[C@@H](CCCNC(=N)N)C(=O)N(C)[C@@H](CCCC)C(=O)N[C@@H](CCCCC)C(=O)N2CC(F)C[C@H]2C(=O)N[C@@H](C(C)C)C(=O)N[C@@H](CO)C(=O)N[C@H](C(=O)N[C@@H](CC(=O)NCCOCCOCC(=O)NCCCCCCCCCCC(=O)O)C(=O)O)CSCC(=O)N[C@@H](Cc2ccccc2)C(=O)N[C@@H](Cc2c[nH]c3ccccc23)C(=O)N[C@@H](CC(=O)O)C1=O` (stereo partly drawn) [Example 2196] ({CH2CO}-FWD[NHexGly]Y[Nle]NR[NMeNle][Ahp(2)][Pro(4ξ-F)]VSC[βAsp][AEEA][Aun]-OH; thioether N-14), the IC50 amounted to 28.4 nM.
For the molecule `CCCCCCN1CC(=O)N[C@@H](Cc2ccc(O)cc2)C(=O)N[C@@H](CC(C)C)C(=O)N[C@@H](CC(N)=O)C(=O)N[C@@H](CCCNC(=N)N)C(=O)N[C@@H](CC(C)C)C(=O)N[C@@H](CCCCC)C(=O)N2CCC[C@H]2C(=O)N[C@@H](C(C)C)C(=O)N[C@@H](CO)C(=O)N[C@H](C(=O)NCC(=O)O)CSCC(=O)N[C@@H](Cc2ccccc2)C(=O)N[C@@H](Cc2ccc(O)cc2)C(=O)N[C@@H](CC(=O)O)C1=O` [Example 1043] ({CH2CO}-FYD[NHexGly]YLNRL[Ahp(2)]PVSCG-OH; thioether N-14), where the note is “293T cells expressing mouse VISTA, competition with biotinylated peptide (2 nM)”, the IC50 was found to be 17.7 nM.
`CCCCCCN1CC(=O)N[C@@H](Cc2ccc(O)cc2)C(=O)N[C@@H](CCCC)C(=O)NCC(=O)N[C@@H](CCCNC(=N)N)C(=O)N[C@@H](CC(C)C)C(=O)N[C@@H](CCCCC)C(=O)N2CCC[C@H]2C(=O)N[C@@H](C(C)C)C(=O)N[C@@H](CC(=O)O)C(=O)N[C@H](C(=O)NCC(=O)O)CSCC(=O)N[C@@H](Cc2cccc(C)c2)C(=O)N[C@@H](Cc2c[nH]c3ccccc23)C(=O)N[C@@H](CC(=O)O)C1=O` [compound 1421] ({CH2CO}-[Phe(3-Me)]WD[NHexGly]Y[Nle]GRL[Ahp(2)]PVDCG-OH; thioether N-14): the IC50 (the 19th table, scaffold drawing 22) was 3.1 nM.
Regarding `CCCCCCN1CC(=O)N[C@@H](Cc2ccc(O)cc2)C(=O)N[C@@H](C(C)C)C(=O)NCC(=O)N[C@@H](CCCNC(=N)N)C(=O)N[C@@H](CC(C)C)C(=O)N[C@@H](CCCCC)C(=O)N2CCC[C@H]2C(=O)N[C@@H](C(C)C)C(=O)N[C@@H](CC(=O)O)C(=O)N[C@H](C(=O)NCC(N)=O)CSCC(=O)N[C@@H](Cc2ccc3ccccc3c2)C(=O)N[C@@H](Cc2ccc(O)cc2)C(=O)N[C@@H](CC(=O)O)C1=O` [Ex 1283] ({CH2CO}-[2Nal]YD[NHexGly]YVGRL[Ahp(2)]PVDCG-NH2; thioether N-14), the IC50 (cell-based binding high-content assay, mVISTA, the 16th table) was 18.9 nM.
